Measurements: patent publication US9371331B2, “Modulators of methyl modifying enzymes, compositions and uses thereof” (Constellation Pharmaceuticals, Inc., priority 2012, dated 2016)
Like-named read-outs stand apart in the source and are kept apart here.

How the values were obtained:
[1] = molecular target: EZH2 (rPRC2) (Homo sapiens, UniProt Q15910); assay: EZH2 assay: rPRC2, biotinylated oligonucleosomes, 3H SAM methyl transfer (FlashPlate scintillation); format: biochemical; details: biotinylated oligonucleosome substrate
Sequence of EZH2 (rPRC2) (Q15910 whole entry): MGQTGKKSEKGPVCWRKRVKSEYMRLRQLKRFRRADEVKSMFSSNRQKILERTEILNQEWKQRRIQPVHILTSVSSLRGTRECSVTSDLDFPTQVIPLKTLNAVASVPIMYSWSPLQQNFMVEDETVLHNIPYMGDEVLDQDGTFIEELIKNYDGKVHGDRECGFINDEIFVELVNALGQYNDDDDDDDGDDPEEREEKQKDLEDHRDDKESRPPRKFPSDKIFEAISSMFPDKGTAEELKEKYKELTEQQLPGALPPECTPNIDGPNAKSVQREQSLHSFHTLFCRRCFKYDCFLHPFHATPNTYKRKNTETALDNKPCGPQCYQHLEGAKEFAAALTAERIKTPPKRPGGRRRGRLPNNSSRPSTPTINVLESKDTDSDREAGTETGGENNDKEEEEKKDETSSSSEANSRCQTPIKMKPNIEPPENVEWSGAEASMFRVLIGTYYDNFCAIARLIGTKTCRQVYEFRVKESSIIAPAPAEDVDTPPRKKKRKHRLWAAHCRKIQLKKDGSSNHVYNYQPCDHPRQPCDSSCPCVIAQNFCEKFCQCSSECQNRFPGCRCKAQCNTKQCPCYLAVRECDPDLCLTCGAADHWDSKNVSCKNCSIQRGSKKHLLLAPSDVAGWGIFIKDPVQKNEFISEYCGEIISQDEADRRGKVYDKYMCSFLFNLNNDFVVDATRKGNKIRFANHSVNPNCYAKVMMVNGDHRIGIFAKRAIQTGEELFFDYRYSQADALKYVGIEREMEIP
Sequence of EZH2 (rPRC2) (O75530 whole entry partner): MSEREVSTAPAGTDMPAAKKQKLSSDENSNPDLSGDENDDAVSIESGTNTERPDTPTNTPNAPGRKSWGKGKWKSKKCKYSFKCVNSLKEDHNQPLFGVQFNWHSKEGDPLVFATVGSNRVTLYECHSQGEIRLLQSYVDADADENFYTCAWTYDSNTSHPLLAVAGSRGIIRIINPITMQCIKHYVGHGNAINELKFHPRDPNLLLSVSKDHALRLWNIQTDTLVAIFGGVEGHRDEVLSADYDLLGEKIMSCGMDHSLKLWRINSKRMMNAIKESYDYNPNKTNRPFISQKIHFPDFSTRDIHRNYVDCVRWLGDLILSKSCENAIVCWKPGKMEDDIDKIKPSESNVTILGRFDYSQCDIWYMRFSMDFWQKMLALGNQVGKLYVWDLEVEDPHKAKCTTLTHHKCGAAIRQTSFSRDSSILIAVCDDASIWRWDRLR
Sequence of EZH2 (rPRC2) (Q15022 whole entry partner): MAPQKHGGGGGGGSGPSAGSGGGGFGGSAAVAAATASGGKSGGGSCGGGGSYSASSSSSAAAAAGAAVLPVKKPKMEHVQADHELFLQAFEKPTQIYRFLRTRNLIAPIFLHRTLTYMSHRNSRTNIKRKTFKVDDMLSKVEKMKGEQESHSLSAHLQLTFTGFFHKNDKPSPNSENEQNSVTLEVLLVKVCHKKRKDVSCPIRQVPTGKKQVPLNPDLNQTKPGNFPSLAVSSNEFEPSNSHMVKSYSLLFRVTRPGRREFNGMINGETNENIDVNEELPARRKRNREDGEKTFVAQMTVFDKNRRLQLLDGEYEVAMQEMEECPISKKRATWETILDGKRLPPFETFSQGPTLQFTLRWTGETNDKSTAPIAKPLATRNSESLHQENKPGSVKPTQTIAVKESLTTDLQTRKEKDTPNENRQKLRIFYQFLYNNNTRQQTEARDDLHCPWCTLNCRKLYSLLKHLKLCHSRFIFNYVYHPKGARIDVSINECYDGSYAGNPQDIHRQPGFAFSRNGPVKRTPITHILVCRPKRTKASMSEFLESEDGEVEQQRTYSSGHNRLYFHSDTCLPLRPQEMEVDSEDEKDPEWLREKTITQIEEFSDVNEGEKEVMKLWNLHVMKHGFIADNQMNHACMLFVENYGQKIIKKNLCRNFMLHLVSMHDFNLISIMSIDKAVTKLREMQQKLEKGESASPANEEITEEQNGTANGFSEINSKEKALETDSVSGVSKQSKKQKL
Description: Assays were carried out by mixing rPRC2 together with biotinylated oligonucleosome substrates in the presence of the radio-labeled enzyme co-factor, S-adenosyl-1-methionine (^3H SAM) (Perkin Elmer) and monitoring the enzymatically mediated transfer of tritiated methyl groups from ^3H SAM to histone lysine residues. The amount of resulting tritiated methyl histone product was measured by first capturing the biotinylated oligonucleosomes in streptavidin (SAV) coated FlashPlates (Perkin Elmer), followed by a wash step to remove un-reacted ^3H SAM, and then counting on a TopCount NXT 384 well plate scintillation counter (Perkin Elmer). The final assay conditions for EZH2 were as follows: 50 mM Tris Buffer pH 8.5, 1 mM DTT, 69 μM Brij-35 detergent, 5.0 mM MgCl2, 0.1 mg/mL BSA, 0.2 μM ^3H SAM, 0.2 μM biotinylated oligonucleosomes, 3.6 μM H3K27 mc3 peptide and 2 nM EZH2.
A 12.5 μL volume of the HMT enzyme, H3K27me3 peptide and oligonucleosome substrate in assay buffer was added to each well of the assay plate using a Multidrop Combi (ThermoFisher). Compounds were pre-incubated with the enzyme for 20 min, followed by initiation of the methyltransferase reaction by addition of 12.5 μL of ^3H SAM in assay buffer (final volume=25 μL). The final concentrations of compounds ranged from a top default concentration of 80 μM down to 0.16 μM in ten 2-fold dilution steps. Reactions were carried out for 60 minutes and quenched with 20 μL per well of 1.96 mM SAH, 50 mM Tris pH 8.5, 200 mM EDTA. Stopped reactions were transferred to SAV coated Flashplates (Perkin Elmer), incubated for 120 min, washed with a plate washer, and then read on the TopCount NXT (1.0 min/well) to measure the amount of methyl histone product formed during the reaction.

[2] = molecular target: Y641N EZH2 (Homo sapiens, UniProt Q15910, Y641N); assay: Y641N EZH2 assay: as EZH2 assay, with reconstituted H3K27Me2 oligonucleosomes as substrate; format: biochemical
Sequence of Y641N EZH2 (Q15910 whole entry Y641N): as the sequence (Q15910 whole entry) above, with Y641N counted along it
Sequence of Y641N EZH2 (O75530 whole entry partner): as the sequence (O75530 whole entry partner) above
Sequence of Y641N EZH2 (Q15022 whole entry partner): as the sequence (Q15022 whole entry partner) above

[3] = wild-type EZH2 (rPRC2), read-out: EZH2 IC50
[4] = Y641N mutant EZH2, H3K27Me2 oligonucleosome substrate
[5] = EZH2 IC50, wild-type EZH2 (rPRC2)
[6] = Y641N EZH2 IC50, Y641N mutant EZH2, H3K27Me2 oligonucleosome substrate
[7] = Y641N mutant EZH2, H3K27Me2 oligonucleosome substrate, read-out: Y641N EZH2 IC50

COc1cc(C)[nH]c(=O)c1CNC(=O)c1c(C)n(C(=O)C2CCOCC2)c2ccccc12 [Compound 372, N-((4-methoxy-6-methyl-2-oxo-1,2-dihydropyridin-3-yl)methyl)-2-methyl-1-(tetrahydro-2H-pyran-4-carbonyl)-1H-indole-3-carboxamide]
IC50 [1, 3]: 0.1 to 1 µM | Y641N EZH2 IC50 [2, 4]: *(0.5 uM)

CCC(OC)C(C)n1c(C)c(C(=O)NCc2c(C)cc(C)[nH]c2=O)c2ccccc21 (racemic) [Compound 275, (±)-N-((4,6-dimethyl-2-oxo-1,2-dihydropyridin-3-yl)methyl)-1-(3-methoxypentan-2-yl)-2-methyl-1H-indole-3-carboxamide]
IC50 [1, 5]: < 0.1 µM | IC50 [2, 6]: < 0.1 µM

Cc1cc(C)c(CNC(=O)c2c(C)n([C@H](C)c3ccccc3)c3nc(C)ncc23)c(O)n1 [Compound 176, (R)-N-((2-hydroxy-4,6-dimethylpyridin-3-yl)methyl)-2,6-dimethyl-7-(1-phenylethyl)-7H-pyrrolo[2,3-d]pyrimidine-5-carboxamide]
IC50 [1, 5]: < 0.1 µM | IC50 [2, 6]: 0.1 to 1 µM

Cc1cc(C)c(CNC(=O)c2c(C)n(C(C)C(C)(C)O)c3ncccc23)c(=O)[nH]1 (centres unmarked) [Compound 271, N-((4,6-dimethyl-2-oxo-1,2-dihydropyridin-3-yl)methyl)-1-(3-hydroxy-3-methylbutan-2-yl)-2-methyl-1H-pyrrolo[2,3-b]pyridine-3-carboxamide]
IC50 [1, 5]: 1 to 10 µM | IC50 [2, 6]: 1 to 10 µM

COc1cc(C)[nH]c(=O)c1CNC(=O)c1c(C)n(C(C)C2CCN(CC(=O)O)CC2)c2ccccc12 (single isomer, unassigned) [Compound 364, (R or S)-2-(4-(1-(3-((4-methoxy-6-methyl-2-oxo-1,2-dihydropyridin-3-yl)methylcarbamoyl)-2-methyl-1H-indol-1-yl)ethyl)piperidin-1-yl) acetic acid]
IC50 [1, 5]: < 0.1 µM | IC50 [2, 6]: 0.1 to 1 µM

COc1cc(C)[nH]c(=O)c1CNC(=O)c1c(C)n(C(C)COc2ccccn2)c2ncccc12 (racemic) [Compound 251, (±)-N-((4-methoxy-6-methyl-2-oxo-1,2-dihydropyridin-3-yl)methyl)-2-methyl-1-(1-(pyridine-2-yloxy)propan-2-yl)-1H-pyrrolo[2,3-b]pyridine-3-carboxamide]
IC50 [1, 3]: 0.1 to 1 µM | IC50 [2, 7]: 0.1 to 1 µM

Cc1cc(C)c(CNC(=O)c2c(C)n(C(C)c3cccc(-c4ccncn4)c3)c3ccccc23)c(=O)[nH]1 (racemic) [Compound 205, (±)-N-((4,6-dimethyl-2-oxo-1,2-dihydropyridin-3-yl)methyl)-2-methyl-1-(1-(3-(pyrimidin-4-yl)phenyl)ethyl)-1H-indole-3-carboxamide]
IC50 [1, 5]: 0.1 to 1 µM | IC50 [2, 6]: 0.1 to 1 µM

Cc1cc(C)c(CNC(=O)c2c(C)n(C(C)CCO)c3ncccc23)c(=O)[nH]1 (racemic) [Compound 193, (±)-N-((4,6-dimethyl-2-oxo-1,2-dihydropyridin-3-yl)methyl)-1-(4-hydroxybutan-2-yl)-2-methyl-1H-pyrrolo[2,3-b]pyridine-3-carboxamide]
IC50 [1, 5]: 0.1 to 1 µM | IC50 [2, 6]: 1 to 10 µM

COc1cc(C)[nH]c(=O)c1CNC(=O)c1c(C)n(C(C)C2CCC(F)(F)CC2)c2ncncc12 (racemic) [Compound 334, (±)-7-(1-(4,4-difluorocyclohexyl)ethyl)-N-((4-methoxy-6-methyl-2-oxo-1,2-dihydropyridin-3-yl)methyl)-6-methyl-7H-pyrrolo[2,3-d]pyrimidine-5-carboxamide]
IC50 [1, 5]: < 0.1 µM | IC50 [2, 6]: 0.1 to 1 µM

Cc1cc(C)c(CNC(=O)c2c(C)n(C(C)c3ccccc3)c3cnccc23)c(=O)[nH]1 (single isomer, unassigned) [Compound 247, (R or S)—N-((4,6-dimethyl-2-oxo-1,2-dihydropyridin-3-yl)methyl)-2-methyl-1-(1-phenylethyl)-1H-pyrrolo[2,3-c]pyridine-3-carboxamide]
IC50 [1, 5]: < 0.1 µM | IC50 [2, 6]: < 0.1 µM

COc1cc(C)[nH]c(=O)c1CNC(=O)c1c(C)n(C(C)C(C)S(C)(=O)=O)c2ccccc12 (centres unmarked) [Compound 350, N-((4-methoxy-6-methyl-2-oxo-1,2-dihydropyridin-3-yl)methyl)-2-methyl-1-(3-(methylsulfonyl)butan-2-yl)-1H-indole-3-carboxamide]
IC50 [1, 5]: < 0.1 µM | IC50 [2, 6]: < 0.1 µM

COc1cc(C)[nH]c(=O)c1CNC(=O)c1c(C)n(C(C)C(C)OC)c2ncccc12 (single isomer, unassigned) [Compound 267, N-((4-methoxy-6-methyl-2-oxo-1,2-dihydropyridin-3-yl)methyl)-1-((2R or 2S, 3R or 3S)-3-methoxybutan-2-yl)-2-methyl-1H-pyrrolo[2,3-b]pyridine-3-carboxamide]
IC50 [1, 3]: < 0.1 µM | IC50 [2, 7]: 0.1 to 1 µM

COC(C)C(C)n1c(C)c(C(=O)NCc2c(C)cc(C)[nH]c2=O)c2ccc(S(C)(=O)=O)cc21 (centres unmarked) [Compound 322, N-((4,6-dimethyl-2-oxo-1,2-dihydropyridin-3-yl)methyl)-1-(3-methoxybutan-2-yl)-2-methyl-6-(methylsulfonyl)-1H-indole-3-carboxamide]
IC50 [1, 5]: 0.1 to 1 µM | IC50 [2, 6]: 0.1 to 1 µM

Cc1cc(C)c(CNC(=O)c2c(C)n([C@H](C)c3ccccc3)c3nc(C4CCOCC4)ncc23)c(O)n1 [Compound 168, (R)-N-((2-hydroxy-4,6-dimethylpyridin-3-yl)methyl)-6-methyl-7-(1-phenylethyl)-2-(tetrahydro-2H-pyran-4-yl)-7H-pyrrolo[2,3-d]pyrimidine-5-carboxamide]
IC50 [1, 3]: 0.1 to 1 µM | IC50 [2, 7]: 1 to 10 µM

CCC(C)n1c(C)c(C(=O)NCc2c(C)cc(C)[nH]c2=O)c2cccnc21 (single isomer, unassigned) [Compound 195, (R or S)-1-(sec-butyl)-N-((4,6-dimethyl-2-oxo-1,2-dihydropyridin-3-yl)methyl)-2-methyl-1H-pyrrolo[2,3-b]pyridine-3-carboxamide]
IC50 [1, 5]: 0.1 to 1 µM | Y641N EZH2 IC50 [2, 4]: *(0.5 μM)

COc1cc(C)[nH]c(=O)c1CNC(=O)c1c(C)n(C(C)CC(N)=O)c2ncccc12 (centres unmarked) [Compound 296, 1-(4-amino-4-oxobutan-2-yl)-N-((4-methoxy-6-methyl-2-oxo-1,2-dihydropyridin-3-yl)methyl)-2-methyl-1H-pyrrolo[2,3-b]pyridine-3-carboxamide]
IC50 [1, 3]: 0.1 to 1 µM | IC50 [2, 7]: 1 to 10 µM

Cc1cc(C)c(CNC(=O)c2cnn(Cc3ccccc3)c2C)c(O)n1 [Compound 109, 1-benzyl-N-((2-hydroxy-4,6-dimethylpyridin-3-yl)methyl)-5-methyl-1H-pyrazole-4-carboxamide]
EZH2 IC50 ([1]; wild-type EZH2 (rPRC2)): *(10 μM) | Y641N EZH2 IC50 [2, 4]: *(10 μM)

CCc1cc(OC)c(CNC(=O)c2c(C)n(C(C)COC)c3ncccc23)c(=O)[nH]1 (racemic) [Compound 280, (±)-N-((6-ethyl-4-methoxy-2-oxo-1,2-dihydropyridin-3-yl)methyl)-1-(1-methoxypropan-2-yl)-2-methyl-1H-pyrrolo[2,3-b]pyridine-3-carboxamide]
IC50 [1, 5]: 0.1 to 1 µM | IC50 [2, 6]: 1 to 10 µM

Cc1cc(C)c(CNC(=O)c2c(C)n(CC3(C)COC3)c3ccccc23)c(=O)[nH]1 [Compound 246, N-((4,6-dimethyl-2-oxo-1,2-dihydropyridin-3-yl)methyl)-2-methyl-1-((3-methyloxetan-3-yl)methyl)-1H-indole-3-carboxamide]
IC50 [1, 5]: 0.1 to 1 µM | IC50 [2, 6]: 0.1 to 1 µM

COc1cc(C)[nH]c(=O)c1CNC(=O)c1c(C)n(C(C)CS(C)(=O)=O)c2ccccc12 (single isomer, unassigned) [Compound 278, (R or S)-N-((4-methoxy-6-methyl-2-oxo-1,2-dihydropyridin-3-yl)methyl)-2-methyl-1-(1-(methylsulfonyl)propan-2-yl)-1H-indole-3-carboxamide]
IC50 [1, 5]: 0.1 to 1 µM | IC50 [2, 6]: 1 to 10 µM

COc1cccc(C(C)n2c(C)c(C(=O)NCc3c(C)cc(C)[nH]c3=O)c3cccnc32)c1 (racemic) [Compound 206, (±)-N-((4,6-dimethyl-2-oxo-1,2-dihydropyridin-3-yl)methyl)-1-(1-(3-methoxyphenyl)ethyl)-2-methyl-1H-pyrrolo[2,3-b]pyridine-3-carboxamide]
IC50 [1, 5]: 0.1 to 1 µM | IC50 [2, 6]: 1 to 10 µM

CCC(c1ccccc1)n1c(C)c(C(=O)NCc2c(C)cc(C)[nH]c2=O)c2cccnc21 (racemic) [Compound 220, (±)-N-((4,6-dimethyl-2-oxo-1,2-dihydropyridin-3-yl)methyl)-2-methyl-1-(1-phenylpropyl)-1H-pyrrolo[2,3-b]pyridine-3-carboxamide]
IC50 [1, 5]: < 0.1 µM | IC50 [2, 6]: 0.1 to 1 µM
